These results are taken from patent EP4737457A1, “POLYSUBSTITUTED MACROCYCLIC COMPOUND, AND PREPARATION METHOD THEREFOR AND USE THEREOF” (Shenzhen Salubris Pharmaceuticals Co., Ltd., priority 2023, dated 2025).

For data set [1], the target named is Human Factor XIa (Homo sapiens, UniProt P03951). As to the kind of experiment: Inhibition of human coagulation Factor XIa by absorbance method (S-2366 substrate, 405 nm). As to conditions: incubated at 37 °C for 20 minutes; substrate 800 µM; read-out: Recombinant Enzyme FXIa IC50. Type of data set: biochemical. Here is the method:
• Enzyme: Human Factor XIa (ENZYME […], Cat. No. HFXIa 1111a) • Substrate: S-2366™ (CHROMOGENIX, Cat. No. 82109039) • Buffer: 145 mM NaCl, 5 mM KCl, 1 mg/mL PEG 8000, 30 mM HEPES, pH 7.4.
Test compounds dissolved in 100% DMSO at 10 mM were diluted with 100% DMSO to concentrations of 1000 µM, 200 µM, 40 µM, 8 µM, 1.6 µM, 0.32 µM, 0.064 µM, 0.0128 µM, 0.00256 µM, and […]. Then 98 µL of FXIa enzyme solution (77.7 ng/mL) was added to each well of a 96-well plate, with 98 µL of buffer added to blank wells instead. Then, 2 µL of compound at different concentrations was added; DMSO was used instead for blank and control wells. The plate was mixed using a plate shaker and incubated at 37 °C for 20 minutes.
Finally, 100 µL of substrate (800 µM) was added to each well, and the absorbance was measured at 405 nm.
Curve fitting was performed using GraphPad Prism software to calculate the IC50 values.

Data set [2] relates to Pooled human plasma. Put plainly: In vitro anticoagulant effect in human plasma (aPTT, EC1.5x). In kind it is biochemical. The conditions noted are these: 37 °C for 10 minutes. As to the method:
aPTT (Lot 220106600), Calcium Chloride (Lot 210305600), Needle Rinse Solution (Lot 211101300): produced by Shenzhen Mindray Bio-Medical Electronics Co., Ltd. Pooled human plasma: collected from healthy individuals using disposable venous blood collection tubes (Liuyang Sanli Medical Technology Development Co., Ltd., Lot 211108, sodium citrate 9:1). Blood was collected, centrifuged at room temperature at 3000 rpm for 10 minutes, and the supernatant was collected and stored for use (Lot 20220606).
Test compounds dissolved in 100% DMSO at 10 mM were diluted with 100% DMSO to concentrations of 0.29 µM, 0.59 µM, 1.17 µM, 2.34 µM, 4.69 µM, 9.38 µM, 18.75 µM, and 37.50 µM. Then 99 µL of pooled human plasma was added to each 1.5 mL centrifuge tube, followed by the addition of 1 µL of compound at different concentrations; 1 µL of DMSO was added to the blank control. The tubes were mixed by repeated manual inversion, centrifuged briefly using a mini centrifuge to collect the samples, and then incubated in a thermostatic water bath at 37 °C for 10 minutes with mixing. The aPTT was measured using a fully automated coagulation analyzer according to the preset program.
Curve fitting was performed using GraphPad Prism software to calculate EC1.5x.

For data set [3], the target named is T1, Human FIIa (Homo sapiens, UniProt P00734).
T1 construct: Human FIIa (Enzyme Research Laboratories, Cat. No. HT 1002a); purchased Enzyme Research Laboratories HT 1002a
As to the kind of experiment: Inhibition of coagulation factor FIIa by absorbance method (S-2366 substrate, 405 nm). In kind it is biochemical. As to conditions: Inhibitory Effect of Compounds on Coagulation Factor FIIa; 37 °C for 30 minutes. As to the method: Then 29.4 μL of FIIa enzyme solution (4 nM) was added to each well of a 384-well plate, with 29.4 μL of buffer added to blank wells instead. Then, 0.6 μL of compound at different concentrations was added; DMSO was used instead for blank and control wells. The plate was mixed using a plate shaker and incubated at 37 °C for 30 minutes. […] Table 6. Inhibitory Effect of Compounds on Coagulation Factor FIIa

In data set [4] the target is T2, α-Chymotrypsin (Homo sapiens, UniProt P17538).
T2 construct: α-Chymotrypsin (Sigma, Cat. No. C8946); purchased Sigma C8946
As to the kind of experiment: Inhibition of Chymotrypsin by absorbance method (S-2586 substrate, 405 nm). In kind it is biochemical. The conditions noted are these: Inhibitory Effect of Compounds on Chymotrypsin; 37 °C for 30 minutes. Here is the method: • Enzyme: α-Chymotrypsin (Sigma, Cat. No. C8946) • Substrate: S-2586™ (Boatman Biotech, Cat. No. B2586) • Buffer: 0.05 M HEPES; 0.145 M NaCl; 5 mM KCl and 0.1% PEG 8000, pH 7.4
Test compounds dissolved in 100% DMSO at 10 mM were diluted with 100% DMSO to concentrations of 100 µM, 33.33 µM, 11.11 µM, 3.704 µM, 1.235 µM, 0.412 µM, 0.137 µM, and 0.046 µM. Then 29.4 µL of Chymotrypsin enzyme solution (20 nM) was added to each well of a 384-well plate, with 29.4 µL of buffer added to blank wells instead. Then, 0.6 µL of compound at different concentrations was added; DMSO was used instead for blank and control wells. The plate was mixed using a plate shaker and incubated at 37 °C for 30 minutes.
Finally, 30 µL of substrate at a concentration of 200 µM was added to each well, and the absorbance was measured at 405 nm.
Table 4. Inhibitory Effect of Compounds on Chymotrypsin

The nature of data set [5]: Pharmacokinetic experiment in rats (iv and PO). As to conditions: male, Sprague-Dawley (SD), rat, plasma, 5 mg/kg.
Source text: (§1) Polyethylene glycol 400 (PEG-400, Lot GORKREUT, Shaen Chemical Technology (Shanghai) Co., Ltd.), DMSO (Lot 20200319, Guangdong Guanghua Sci-Tech Co., Ltd.), normal saline (Lot C20052604, Jiangxi Kelun Pharmaceutical Co., Ltd.). LC-MS instrument (Thermo Fisher Ultimate 3000 UPLC, TSQ QUANTUM ULTRA triple quadrupole mass spectrometer, AB SCIEX 5500 QTARP).
(§2) SD rats: Male, 180-250 g, purchased from Guangdong Vital River Laboratory Animal Technology Co., Ltd.
(§3) The test compound powder was accurately weighed, completely dissolved in DMSO, then PEG-400 was added. The mixture was vortexed and sonicated to mix, followed by the addition of normal saline. The mixture was vortexed and sonicated again to achieve a final concentration of 0.5 mg/mL (DMSO:PEG-400:NS = 5:60:35, V/V/V). The dosing volume was 10 mL/kg for oral gavage and 0.5 mL/kg for intravenous administration.
(§4) After intravenous or oral administration to rats, 200 µL of venous blood was collected at 5 min (not collected for oral group), 15 min, 30 min, 1 h, 2 h, 5 h, 7 h, and 24 h into heparinized EP tubes. The blood was centrifuged at 12,000 rpm for 2 minutes, and the plasma was collected and stored at -80 °C until analysis.
(§5) A precise amount of the test compound was weighed and dissolved in DMSO to 1 mg/mL as a stock solution. An appropriate volume of the compound stock solution was accurately pipetted and diluted with acetonitrile to prepare standard series solutions. 20 µL of each standard series solution was accurately pipetted and added to 180 µL of blank plasma, vortexed to mix, to prepare plasma samples equivalent to plasma concentrations of 1 ng/mL, 3 ng/mL, 10 ng/mL, 30 ng/mL, 100 ng/mL, 300 ng/mL, 1000 ng/mL, 3000 ng/mL, and 5000 ng/mL. Each concentration was analyzed in duplicate to establish the standard curve. 20 µL of plasma sample was taken, and 200 µL of an internal standard (propranolol, 5 ng/mL) in acetonitrile solution was added. The mixture was vortexed and centrifuged at 4000 rpm for 5 minutes. The supernatant was taken for LC-MS analysis. The LC-MS detection conditions were as follows: Chromatographic Column: Waters ACQUITY™ PREMIER HSS T3, 50*2.1 mm, 1.8 µm.
(§6) Mobile phase A: water (0.1% formic acid), mobile phase B: acetonitrile, flow rate: 0.5 mL/min, gradient elution: see Table 2 below.
(§7) After determining the plasma drug concentration by LC-MS, the pharmacokinetic parameters following administration to rats were calculated using the non-compartmental model in WinNonlin 6.1 software.
Data set [6] addresses T3, Human Trypsin (Homo sapiens, UniProt P07477).
T3 construct: purchased Sigma T6424
As to the kind of experiment: Inhibition of Trypsin by absorbance method (S-2222 substrate, 405 nm). Type of data set: biochemical. The conditions noted are these: Inhibitory Effect of Compounds on Trypsin; 37 °C for 30 minutes. Here is the method:
• Enzyme: Human Trypsin (Sigma, Cat. No. T6424) • Substrate: S-2222™ (CHROMOGENIX, Cat. No. 82031639) • Buffer: 0.1 M sodium phosphate; 0.2 M NaCl and 0.5% PEG 8000, pH 7.4
Test compounds dissolved in 100% DMSO at 10 mM were diluted with 100% DMSO to concentrations of 10000 µM, 3333 µM, 1111 µM, 370.4 µM, 123.5 µM, 41.2 µM, 13.7 µM, and 4.6 µM. Then, 29.4 µL of Trypsin enzyme solution (0.8 nM) was added to each well of a 384-well plate, with 29.4 µL of buffer added to blank wells instead. Then, 0.6 µL of compound at different concentrations was added; DMSO was used instead for blank and control wells. The plate was mixed using a plate shaker and incubated at 37 °C for 30 minutes.
Finally, 30 µL of substrate at a concentration of 40 µM was added to each well, and the absorbance was measured at 405 nm.
Table 5. Inhibitory Effect of Compounds on Trypsin

Data set [7] is described as follows: in vivo. The conditions noted are these: male, Sprague-Dawley (SD), rat.
Source text: as §1, §2, §3, §4, §5, §6, §7

Human Factor XIa, sequence (P03951 388-625 limits assumed): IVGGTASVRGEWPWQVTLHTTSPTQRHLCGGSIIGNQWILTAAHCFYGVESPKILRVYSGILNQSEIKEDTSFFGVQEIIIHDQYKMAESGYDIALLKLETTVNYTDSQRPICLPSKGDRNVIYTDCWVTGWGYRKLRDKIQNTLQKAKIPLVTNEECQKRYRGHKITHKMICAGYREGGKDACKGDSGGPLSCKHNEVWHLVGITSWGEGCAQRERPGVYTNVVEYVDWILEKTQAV
Human Factor XIa, sequence (P03951 19-387 partner limits assumed): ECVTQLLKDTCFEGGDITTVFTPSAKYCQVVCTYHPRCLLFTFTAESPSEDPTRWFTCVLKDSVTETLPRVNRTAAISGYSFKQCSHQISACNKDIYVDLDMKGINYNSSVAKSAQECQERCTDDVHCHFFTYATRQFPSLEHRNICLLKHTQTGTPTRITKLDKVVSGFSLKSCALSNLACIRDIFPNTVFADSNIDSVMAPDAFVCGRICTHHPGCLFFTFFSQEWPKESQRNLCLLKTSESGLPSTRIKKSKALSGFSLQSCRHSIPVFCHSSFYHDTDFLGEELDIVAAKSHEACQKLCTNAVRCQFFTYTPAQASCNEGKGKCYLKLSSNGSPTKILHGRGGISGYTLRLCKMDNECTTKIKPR
T2 sequence (P17538 34-164 limits assumed, other chains not shown): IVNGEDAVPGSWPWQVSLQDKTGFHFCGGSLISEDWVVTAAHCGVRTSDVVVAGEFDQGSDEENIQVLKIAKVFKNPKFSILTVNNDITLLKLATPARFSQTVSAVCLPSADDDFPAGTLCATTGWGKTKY
T2 sequence (P17538 167-263 limits assumed, other chains not shown): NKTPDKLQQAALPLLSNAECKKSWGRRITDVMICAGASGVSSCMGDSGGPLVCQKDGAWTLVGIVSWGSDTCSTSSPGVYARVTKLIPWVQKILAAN

Regarding `[2H]C([2H])([2H])n1ncc2c1-c1cc(cc(F)c1F)[C@@H](n1cnc(-c3cc(Cl)ccc3-n3cc(Cl)nn3)cc1=O)CCC[C@@H](C)C(=O)N2` [Compound 17, (3S,7R)-3-(4-(5-chloro-2-(4-chloro-1H-1,2,3-triazol-1-yl)phenyl)-6-oxopyrimidin-1(6H)-yl)-2^5,2^6-difluoro-7-methyl-1^1-(methyl-d3)-1^1H-9-aza-1(5,4)-pyrazola-2(1,3)-benzenacyclononaphan-8-one], the IC50 was found to be 0.36 nM in data set [1], 6920 nM in data set [3], 390 nM in data set [4] and 322 nM in data set [6]. In addition, the “Human Plasma APTT 1.5x” value in data set [2] came out at 0.04 µM. Further, in data set [5], the bioavailability was found to be 59.6%.

As for `[2H]C([2H])([2H])n1ncc2c1-c1cc(F)c(F)c(c1)[C@@H](n1cnc(-c3c(-n4cc(C(F)(F)F)nn4)ccc(Cl)c3F)cc1=O)CCC[C@@H](C)C(=O)N2` [Compound 4, (3S,7R)-3-(4-(3-chloro-2-fluoro-6-(4-(trifluoromethyl)-1H-1,2,3-triazol-1-yl)phenyl)-6-oxopyrimidin-1(6H)-yl)-2^4,2^5-difluoro-7-methyl-1^1-(methyl-d3)-1^1H-9-aza-1(5 ,4)-pyrazola-2(1,3)-benzenacyclononaphan-8-one], the IC50 in data set [1] was determined as 0.62 nM; in data set [4] it was 173 nM; in data set [6] it was 355 nM. The “Human Plasma APTT 1.5x” value in data set [2] was found to be 0.20 µM. In data set [5], the bioavailability amounted to 19%.

For `[2H]C([2H])([2H])n1ncc2c1-c1cccc(c1)[C@@H](n1cnc(-c3cc(Cl)ccc3-n3cc(Cl)nn3)cc1=O)CCC[C@@H](C)C(=O)N2` [Comparative compound 2, reference compound], the IC50 in data set [3] is 3140 nM; in data set [4] it was 79.2 nM; in data set [6], 83.1 nM.

For the compound `[2H]C([2H])([2H])n1ncc2c1-c1cc(cc(F)c1F)[C@@H](n1cnc(-c3c(-n4cc(C(F)(F)F)nn4)ccc(Cl)c3F)cc1=O)CCC[C@@H](C)C(=O)N2` [Compound 16, (3S,7R)-3-(4-(3-chloro-2-fluoro-6-(4-(trifluoromethyl)-1H-1,2,3-triazol-1-yl)phenyl)-6-oxopyrimidin-1(6H)-yl)-2^52^6-difluoro-7-methyl-1^1-(methyl-d3)-1^1H-9-aza-1(5,4)-pyrazola-2(1,3)-benzenacyclononaphan-8-one], the IC50 in data set [1] came to 0.4 nM; in data set [3] it was 9210 nM; in data set [4] it was 164 nM; in data set [6], 219 nM. Besides, in data set [2], the “Human Plasma APTT 1.5x” value is on record as 0.31 µM. Besides, the bioavailability in data set [5] came out at 44.5%.

On to `[2H]C([2H])([2H])n1ncc2c1-c1cc(F)cc(c1)[C@@H](n1cnc(-c3cc(Cl)ccc3-n3cc(Cl)nn3)cc1=O)CCC[C@@H](C)C(=O)N2` [Comparative compound 3, reference compound], for which the half-maximal inhibitory concentration (IC50) in data set [3] is 2150 nM; in data set [4], 103 nM; in data set [6], 110 nM.

Take `[2H]C([2H])([2H])n1ncc2c1-c1cc(cc(F)c1F)[C@@H](n1cnc(-c3cc(Cl)ccc3-n3cc(C(F)(F)F)nn3)cc1=O)CCC[C@@H](C)C(=O)N2` [Compound 18, (3S,7R)-3-(4-(5-chloro-2-(4-(trifluoromethyl)-1H-1,2,3-triazol-1-yl)phenyl) -6-oxopyrimidin-1(6H)-yl)-2^5,2^6-difluoro-7-methyl-1^1-(methyl-d3)-1^1H-9-aza-1(5,4)-pyrazola-2(1,3)-benzenacyclononaphan-8-one]: the half-inhibitory concentration (IC50) is 11100 nM in data set [3], 223 nM in data set [4] and 627 nM in data set [6]. For the same compound, the bioavailability in data set [5] is 21.9%.

For the compound `[2H]C([2H])([2H])n1ncc2c1-c1cc(F)c(F)c(c1)[C@@H](n1cnc(-c3cc(Cl)ccc3-n3cc(Cl)nn3)cc1=O)CCC[C@@H](C)C(=O)N2` [Compound 1, (3S,7R)-3-(4-(5-chloro-2-(4-chloro-1H-1,2,3-triazol-1-yl)phenyl)-6-oxopyrimidin-1(6H)-yl)-2^4,2^5-difluoro-7-methyl-1^1-(methyl-d3)-1^1H-9-aza-1(5,4)-pyrazola-2(1,3)-benzenacyclononaphan-8-one], the IC50 turned out to be 0.24 nM in data set [1], 5630 nM in data set [3], 411 nM in data set [4] and 225 nM in data set [6].

Turning to `C[C@@H]1CCC[C@H](n2cnc(-c3cc(Cl)ccc3-n3cc(C(F)(F)F)nn3)cc2=O)c2cc(cc(F)c2F)-c2c(cnn2C(F)F)NC1=O` [Compound 12, (3R,7R)-3-(4-(5-chloro-2-(4-(trifluoromethyl)-1H-1,2,3-triazol-1-yl)phenyl) -6-oxopyrimidin-1(6H)-yl)-24,2^5-difluoro-7-methyl-1^1-difluoromethyl-1^1H-9-aza-1(5,4)-pyr azola-2(1,3)-benzenacyclononaphan-8-one], the IC50 in data set [1] was 0.31 nM. For the same compound, in data set [2], the “Human Plasma APTT 1.5x” value is 0.28 µM. The compound further came in with a bioavailability in data set [7] of 29.4%.
